This test deals with LPS-induced acute lung injury mice. The test is described as follows: Intratracheal administration in LPS-induced acute lung injury model; cells counted in bronchoalveolar lavage fluid. It is filed as in vivo, mice (male BALB/c). The conditions noted are these: non-polymer-incorporated solution in saline (50 μL), intratracheal, 0.2, 2 or 20 μg/body; n=8.

`O=C([O-])C[C@H](O)C[C@H](O)/C=C/c1c(C2CC2)nc2ccccc2c1-c1ccc(F)cc1.O=C([O-])C[C@H](O)C[C@H](O)/C=C/c1c(C2CC2)nc2ccccc2c1-c1ccc(F)cc1.[Ca+2]` [pitavastatin calcium]: the “Effect of inhibiting migration of inflammatory cells (result in words)” value is reported as “did not exhibit the effect of inhibiting migration of inflammatory cells”.
